In PMC9995496, “A screen for MeCP2-TBL1 interaction inhibitors using a luminescence-based assay” (Scientific Reports, 2023):
Structures can show the parent of a compound that is named as a salt. Where two headings read alike, the source gives them in different places.

Tested on: PRKACA-PRKAR2A interaction (SmBiT-PRKACA / LgBiT-PRKAR2A), protein kinase A
Design: NanoLuc complementation counter-screen in cell extract, PRKACA with PRKAR2A, loss of luminescence, detects NanoLuc interference
Conditions: 0.5 h, 20 µM, inhibitor
[1] = counter-screen for NanoLuc interference, Inh (PKA)
[2] = counter-screen for NanoLuc interference

Structure (SMILES) | Inh (PKA) [2] [%] | other results
Cc1cccc(-c2[nH]c(C(C)(C)C)nc2-c2ccc3c(c2)OCO3)n1 [UM0127976:02, SB-505124 hydrochloride] | – | Inh (PKA) [1]: 12.14%
C[C@@H]1CCN(C(=O)CC#N)C[C@@H]1N(C)c1ncnc2[nH]ccc12 [UM0128176:02, Tofacitinib (CP-690550,Tasocitinib)] | – | Inh (PKA) [1]: -2.944%
O=C(O)c1ccnc(C(=O)O)c1 [UM0128207:03, 2,4-Pyridinedicarboxylic Acid] | 1.396 | –
CCCS(=O)(=O)Nc1ccc(F)c(C(=O)c2c[nH]c3ncc(-c4ccc(Cl)cc4)cc23)c1F [UM0128310:03, Vemurafenib (PLX4032, RG7204)] | 34.51 | –
CC(/C=C/C(=O)NO)=C\[C@@H](C)C(=O)c1ccc(N(C)C)cc1 [UM0128540:02, Trichostatin A (TSA)] | 3.519 | –
O=C1CCc2c(ccc3ccccc23)O1 [UM0128542:02, Splitomicin] | 1.175 | –
O=C(CCCCCN1C(=O)c2cccc3cccc(c23)C1=O)NO [UM0128546:02, Scriptaid] | 3.14 | –
Nc1ncn([C@H]2C[C@H](O)[C@@H](CO)O2)c(=O)n1 [UM0128548:04, Decitabine (NSC127716, 5AZA-CdR)] | 0.991 | –
O=c1ncccn1[C@@H]1O[C@H](CO)[C@@H](O)[C@H]1O [UM0128549:02, Zebularine] | -0.4631 | –
O=C(c1ccc(Cl)cc1Cl)n1nnc2ccccc21 [UM0128552:02, ITSA-1 (ITSA1)] | 13.93 | –
CCCC(CCC)C(=O)O [UM0128554:02, Valproic acid] | – | Inh (PKA) [1]: -0.4434%
NC(=O)C1CCCc2c1[nH]c1ccc(Cl)cc21 (stereo not drawn) [UM0128555:02, EX 527 (SEN0014196)] | 3.362 | –
Oc1ccc(/C=C/c2cc(O)cc(O)c2)cc1 [UM0128556:03, Resveratrol] | 25.41 | –
Oc1cc(O)cc(/C=C/c2ccc(O)c(O)c2)c1 [UM0128559:03, Piceatannol] | 17.81 | –
CCCCCCCCCCCCCCCc1cccc(O)c1C(=O)O [UM0128565:02, Anacardic acid] | 5.402 | –
CC(C)C(=O)SCCCCCCC(=O)Nc1nc(-c2ccccc2)cs1 [UM0128574:02, NCH 51] | 3.39 | –
CC(=O)Nc1ccc(C(=O)Nc2ccccc2N)cc1 [UM0128575:02, CI994 (Tacedinaline)] | -1.752 | –
O=Nc1ccc(O)c2ncccc12 [UM0128576:03, NSC 3852] | 10.59 | –
COc1cc2c(NC3CCN(C(C)C)CC3)nc(C3CCCCC3)nc2cc1OCCCN1CCCC1 [UM0128581:02, UNC0638] | 0.9337 | –
CCN(c1cc(-c2ccc(CN3CCOCC3)cc2)cc(C(=O)NCc2c(C)cc(C)[nH]c2=O)c1C)C1CCOCC1 [UM0129937:03, EPZ-6438] | 4.351 | –

Structure (SMILES) | Inh (PKA) [2] [%] | other results
COc1cc2c(NC3CCN(C4CCCCC4)CC3)nc(N3CCCN(C(C)C)CC3)nc2cc1OCCCN1CCCCC1 [UM0129939:02, UNC 0646] | 0.2399 | –
Cn1cnc2c(F)c(Nc3ccc(Br)cc3Cl)c(C(=O)NOCCO)cc21 [UM0130968:04, AZD6244 (Selumetinib)] | 16.5 | –
O=C(NOCC1CC1)c1ccc(F)c(F)c1Nc1ccc(I)cc1Cl [UM0130972:02, PD184352 (CI-1040)] | 70.13 | –
COc1cc2nccc(Oc3ccc(NC(=O)NC4CC4)c(Cl)c3)c2cc1C(N)=O [UM0130973:02, Lenvatinib (E7080)] | 3.422 | –
Cn1cc(C2=C(c3cn(C4CCN(Cc5ccccn5)CC4)c4ccccc34)C(=O)NC2=O)c2ccccc21 [UM0130974:02, Enzastaurin (LY317615)] | 49.88 | –
C#Cc1cccc(Nc2ncnc3cc(OCCOC)c(OCCOC)cc23)c1 [UM0130975:02, Erlotinib Hydrochloride] | – | Inh (PKA) [1]: 10.54%
CS(=O)(=O)N1CCN(Cc2cc3nc(-c4cccc5[nH]ncc45)nc(N4CCOCC4)c3s2)CC1 [UM0130976:02, GDC-0941] | – | Inh (PKA) [1]: 3.012%
CC(=O)Nc1cccc(-n2c(=O)n(C3CC3)c(=O)c3c(Nc4ccc(I)cc4F)n(C)c(=O)c(C)c32)c1 [UM0130977:03, Trametinib (GSK1120212)] | 2.214 | –
Cc1ccc(NC(=O)c2ccc(CN3CCN(C)CC3)cc2)cc1Nc1nccc(-c2cccnc2)n1 [UM0130978:02, Imatinib Mesylate (STI571)] | – | Inh (PKA) [1]: 10.22%
CS(=O)(=O)CCNCc1ccc(-c2ccc3ncnc(Nc4ccc(OCc5cccc(F)c5)c(Cl)c4)c3c2)o1 [UM0130979:02, Lapatinib Ditosylate] | – | Inh (PKA) [1]: 54.72%
Nc1cccc2c1CN(C1CCC(=O)NC1=O)C2=O (stereo not drawn) [UM0130980:03, Lenalidomide (CC-5013)] | -1.488 | –
NC1(c2ccc(-c3nc4ccn5c(=O)[nH]nc5c4cc3-c3ccccc3)cc2)CCC1 [UM0130983:02, MK-2206 dihydrochloride] | 6.14 | –
Cc1ccc(C(=O)Nc2cccc(C(F)(F)F)c2)cc1Nc1nc(-c2cccnc2)nc2c1cnn2C [UM0130987:02, NVP-BHG712] | 37.9 | –
CC(C)(C)c1cc(NC(=O)Nc2ccc(-c3cn4c(n3)sc3cc(OCCN5CCOCC5)ccc34)cc2)no1 [UM0130989:03, Quizartinib (AC220)] | 1.247 | –
CNC(=O)c1cc(Oc2ccc(NC(=O)Nc3ccc(Cl)c(C(F)(F)F)c3)cc2)ccn1 [UM0130993:02, Sorafenib Tosylate] | – | Inh (PKA) [1]: 7.099%
COc1ccc(Cl)c(Nc2nc3ccccc3nc2NS(=O)(=O)c2cccc(NC(=O)C(C)(C)N)c2)c1 [UM0130997:02, XL147] | 61.81 | –
Cc1ccc(NC(=O)c2cccc(N(C)C)c2)cc1NC(=O)c1ccc(O)cc1 [UM0130998:02, ZM336372] | 21.08 | –
CCN(CC)CCCCNc1ncc2cc(-c3cc(OC)cc(OC)c3)c(NC(=O)NC(C)(C)C)nc2n1 [UM0131000:03, PD 173074] | 0.205 | –
COc1cc2nccc(Oc3ccc(NC(=O)Nc4ccc(F)cc4F)c(F)c3)c2cc1OC [UM0131001:04, Ki8751] | 5.997 | –
CCN(CC)CCOc1ccc(C(=C(Cl)c2ccccc2)c2ccccc2)cc1 [UM0132668:02, Clomiphene citrate] | 14.01 | –

Structure (SMILES) | Inh (PKA) [2] [%] | other results
N[C@@H](Cc1ccc(N(CCCl)CCCl)cc1)C(=O)O [UM0132725:02, Melphalan] | – | Inh (PKA): 3.23
Cn1ccnc1S [UM0132728:02, Methimazole] | 3.033 | –
CCCc1cc(=O)[nH]c(=S)[nH]1 [UM0132755:02, Propylthiouracil] | 1.031 | –
Cn1c(=O)c2nc[nH]c2n(C)c1=O [UM0132766:02, Theophylline] | -0.2913 | –
CNCCc1ccccn1 [UM0132794:02, Betahistine 2HCl] | 2.049 | –
COc1c(C)c2c(c(O)c1C/C=C(\C)CCC(=O)O)C(=O)OC2 [UM0132795:02, Mycophenolic acid] | 1.414 | –
O=c1ccc2cc(O)c(O)cc2o1 [UM0132846:02, 6,7-Dihydroxycoumarin] | 4.392 | –
COc1ccc2c3c1O[C@H]1C[C@@H](O)C=C[C@@]31CCN(C)C2 [UM0132882:02, Galanthamine HBr] | – | Inh (PKA) [1]: 0.1906%
CCOC(=O)[C@H](CCc1ccccc1)N[C@@H](C)C(=O)N1CCC[C@H]1C(=O)O [UM0132889:02, Enalapril Maleate] | -0.0661 | –
Nc1nc(=O)c2nc(CNc3ccc(C(=O)N[C@@H](CCC(=O)O)C(=O)O)cc3)cnc2[nH]1 [UM0132892:02, Folic acid] | 2.052 | –
CC(=O)/N=c1/sc(S(N)(=O)=O)nn1C [UM0132958:02, Methazolamide] | 0.8823 | –
CCN1CCN(c2cc3c(cc2F)c(=O)c(C(=O)O)cn3C2CC2)CC1 [UM0132985:02, Enrofloxacin] | 1.786 | –
C=CC[C@@H]1/C=C(\C)C[C@H](C)C[C@H](OC)[C@H]2O[C@@](O)(C(=O)C(=O)N3CCCC[C@H]3C(=O)O[C@H](/C(C)=C/[C@@H]3CC[C@@H](O)[C@H](OC)C3)[C@H](C)[C@@H](O)CC1=O)[C@H](C)C[C@@H]2OC [UM0132999:02, Tacrolimus (FK506)] | 15.44 | –
CC[C@H](C)C(=O)O[C@H]1C[C@@H](C)C=C2C=C[C@H](C)[C@H](CC[C@@H]3C[C@@H](O)CC(=O)O3)[C@H]21 [UM0133001:02, Lovastatin] | 15.39 | –
CS(=O)(=O)c1ccc(C2=C(c3ccccc3)C(=O)OC2)cc1 [UM0133054:02, Rofecoxib] | 1.384 | –
CCCCC1=NC2(CCCC2)C(=O)N1Cc1ccc(-c2ccccc2-c2nnn[nH]2)cc1 [UM0133057:02, Irbesartan] | 5.211 | –
CC1COc2c(N3CCN(C)CC3)c(F)cc3c(=O)c(C(=O)O)cn1c23 (stereo not drawn) [UM0133058:02, Ofloxacin] | -0.3552 | –
Cc1ccc(=O)n(-c2ccccc2)c1 [UM0133133:02, Pirfenidone] | 0.9802 | –
CCOC(=O)[C@H](CCc1ccccc1)N[C@@H](C)C(=O)N1[C@H](C(=O)O)C[C@@H]2CCC[C@@H]21 [UM0133179:02, Ramipril] | 0.6461 | –
C/C=C1\[C@H]2C=C(C)C[C@]1(N)c1ccc(=O)[nH]c1C2 [UM0133189:02, (-)-Huperzine A] | 0.2799 | –
